Active and inactive are the calls of the source. The rule behind the calls is not given here.
Tests used:
Tubulin alpha 4a [1] = molecular target: T1, Tubulin alpha 4a (Ovis aries, UniProt C5ISA2); experiment: (§1) Inhibition of Ovis aries (sheep) brain tubulin polymerization assessed as microtubule assembly after 15 min by measuring turbidity based spectroscopic analysis
[2] = molecular target: Tubulin alpha 4a (Ovis aries) (UniProt C5ISA2); experiment: as §1
K562 [3] = experiment: Cytotoxicity against Homo sapiens (human) K562 cells after 72 hr by MTT assay; assay type: functional, cell-based; settings: K562, 72 h
SK-N-MC = experiment: Cytotoxicity against Homo sapiens (human) SK-N-MC cells after 72 hr by MTT assay; assay type: functional, cell-based
HeLa = experiment: Antiproliferative activity against Homo sapiens (human) HeLa cells; assay type: functional, cell-based
MCF7 = experiment: Antiproliferative activity against Homo sapiens (human) MCF7 cells; assay type: functional, cell-based
K562 [4] = experiment: Cytotoxicity against Homo sapiens (human) K562 cells; assay type: functional, cell-based
[5] = molecular target: Tubulin alpha 4a (Ovis aries) (UniProt C5ISA2); experiment: Binding affinity to Ovis aries (sheep) brain tubulin assessed as increase in fluorescent intensity at 1:1 compound protein ratio after 30 min by fluorescence spectroscopic analysis
[6] = molecular target: Tubulin alpha 4a (Ovis aries) (UniProt C5ISA2); experiment: Inhibition of Ovis aries (sheep) brain tubulin polymerization assessed as reduction of length of microtubule filament at 20 to 30 uM after 15 min by transmission electron microscopy analysis
Tubulin alpha 4a [7] = molecular target: T1, Tubulin alpha 4a; experiment: (§2) Inhibition of Ovis aries (sheep) brain tubulin polymerization assessed as microtubule assembly after 30 min by CD spectra analysis
[8] = molecular target: Tubulin alpha 4a (Ovis aries) (UniProt C5ISA2); experiment: as §2
Tubulin alpha 4a [9] = molecular target: T1, Tubulin alpha 4a; experiment: (§3) Binding affinity to Ovis aries (sheep) brain tubulin assessed as intrinsic tryptophan fluorescence after 30 min by fluorescence spectroscopic analysis; assay type: tissue-based
[10] = molecular target: Tubulin alpha 4a (Ovis aries) (UniProt C5ISA2); experiment: as §3; assay type: tissue-based
[11] = molecular target: Tubulin alpha 4a (Ovis aries) (UniProt C5ISA2); experiment: Binding affinity to Ovis aries (sheep) brain tubulin assessed as […] at 25 to 50 uM after 30 min by far-UV CD spectrum analysis
[12] = molecular target: Tubulin alpha 4a (Ovis aries) (UniProt C5ISA2); experiment: Inhibition of Ovis aries (sheep) brain tubulin polymerization assessed as microtubule assembly at 30 uM after 30 min by CD spectra analysis

Tubulin alpha 4a (Ovis aries), sequence (C5ISA2 1-448): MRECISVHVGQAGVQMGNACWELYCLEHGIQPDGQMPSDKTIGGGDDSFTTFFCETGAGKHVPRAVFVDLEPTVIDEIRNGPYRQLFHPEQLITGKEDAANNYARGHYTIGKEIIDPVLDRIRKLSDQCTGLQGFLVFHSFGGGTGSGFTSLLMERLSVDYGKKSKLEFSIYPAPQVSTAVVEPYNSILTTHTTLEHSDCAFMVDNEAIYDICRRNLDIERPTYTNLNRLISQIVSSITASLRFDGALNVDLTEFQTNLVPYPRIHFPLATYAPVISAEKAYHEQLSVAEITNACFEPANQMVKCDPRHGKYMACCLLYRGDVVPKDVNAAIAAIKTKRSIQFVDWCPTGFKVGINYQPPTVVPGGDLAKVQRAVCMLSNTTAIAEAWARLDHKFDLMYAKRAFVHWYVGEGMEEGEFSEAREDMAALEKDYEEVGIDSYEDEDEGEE
T1 sequence (C5ISA2 1-448): as above

Row | IC50 (Tubulin alpha 4a [1]) [µM] | inhibition [2] | IC50 (HeLa) [µM] | IC50 (MCF7) [µM] | Activity [5] | inhibition [6] | IC50 (Tubulin alpha 4a [7]) [µM] | inhibition [8] | Kd (Tubulin alpha 4a [9]) [µM] | Activity [10] | Activity [11] | inhibition [12] [%] | SMILES | IC50 (K562 [3]) [µM] | IC50 (SK-N-MC) [µM] | IC50 (K562 [4]) [µM]
1 | 20.3 | Dose-dependent effect |  |  |  |  |  |  |  |  |  |  | O=C(/C=C/c1ccc(Cl)cc1)c1cc(Cl)ccc1O | 38.7 | 45.8 | 
2 | 26.6 |  | 13.8 | 12 |  |  |  |  |  |  |  |  | COc1cc(/C=C/C(=O)CC(=O)/C=C/c2ccc(O)c(OC)c2)ccc1O [CURCUMIN] | 49.2 | 57.4 | 54.3
3 | > 50 |  |  |  |  |  |  |  |  |  |  |  | O=C(/C=C/c1ccc(Cl)cc1Cl)c1cc(Cl)ccc1O | 65.6 | 69.8 | 
4 | 21.4 | Dose-dependent effect |  |  |  |  |  |  |  |  |  |  | O=C(/C=C/c1ccccc1Cl)c1cc(Cl)ccc1O | 41.8 | 51.3 | 
5 | 19.6 | Dose-dependent effect |  |  | Active | Active | 19.6 | Dose-dependent effect | 3.7 | Dose-dependent effect | Active | 89 | O=C(/C=C/c1cccc(Cl)c1)c1cc(Cl)ccc1O | 41.1 | 47.8 | 
6 | 49.3 |  |  |  |  |  |  |  |  |  |  |  | O=C(/C=C/c1ccccc1)c1ccccc1O [2'-HYDROXYCHALCONE] | 60.7 | 61.2 | 

Source: ChEMBL document CHEMBL3045461, “Biological evaluation of synthetic analogues of curcumin: chloro-substituted-2-hydroxychalcones as potential inhibitors of tubulin polymerization and cell proliferation” (Med Chem Res, 2011)
